The results in this text go back to publication PMC11209715, “A novel selenium analog of HDACi-based twin drug induces apoptosis and cell cycle arrest via CDC25A to improve prostate cancer therapy” (Theranostics, 2024).

A value given as a limit tells only on which side of the number the result lay.

One series has as its system HT-29. Briefly: CCK-8 cell viability assay, HT-29. The series is classed as cell-based. Conditions: Homo sapiens, Figure 2A. As for the experimental part: (§1) Human cancer cell lines (PC3, DU145, A549, H1299, MDA-MB-231, HepG2, PANC-1, MIA PaCa-2, HT-29, HCT116, and HeLa) were obtained from the Cell Resource Center, Peking Union Medical College (National Infrastructure of Cell Line Resource, NSTI). These cell lines were cultured according to NSTI culture guidelines and cultured in RPMI 1640 medium (Biological Industries, Israel) supplemented with 10% heat-inactivated fetal bovine serum (FBS; BI; Israel), penicillin/streptomycin (P/S; 100 IU/ml; Gibco, 10378016) in an incubator at 37 °C and 5% CO2.
(§2) Cell cytotoxicity assays were performed in 96-well plates (NEST) to determine the growth kinetics of SeSA-DCA-treated cells using CCK-8 reagent (Shandong Sparkjade Biotechnology Co., Ltd., CT0001-B). Cells (5000 cells/well) were treated with DMSO or different drugs. Each treatment was performed in five replicates. To assess cell growth, 10 μL of CCK-8 reagent was introduced to every well and allowed to incubate for 4 h. Following that, the absorbance value for each well was measured at 450 nm. Every experiment was duplicated no less than thrice.

The subject of series [1] is PC3 cells. Nature of the series: CCK-8 cell viability assay, PC3. The series is classed as cell-based. Conditions: Homo sapiens, PC-3, Figure 2B and text. As for the experimental part:
as §1, §2
On the technique in general: Tetrazolium dyes change colour on reduction, which living cells bring about.

Series [2] can be described thus: Drug toxicity test: blood biochemistry in nude mice. The series is classed as in vivo. On the set-up: TBIL / BUN: unit not given here. Conditions: serum of nude mice; for ALT: dose (DCA 100, SAHA 20, SeSAHA 20, Docetaxel 10, SeSA-DCA 20 mg/kg); for ALT / ALP / AST: in U/L (unit assumed); for ALB / GLOB / TP: in g/L (unit assumed). As for the experimental part: Blood samples from each mouse were kept at room temperature for 3 h and centrifuged at 8000 rpm for 15 min to produce serum. The samples were then placed on the blood routine detector for biochemical analysis.

Series [3] relates to PC3 cells. Nature of the series: RNA-sequencing and GSEA of treated PC3 cells. The series is classed as cell-based, Human. Conditions: 48 h. As for the experimental part: PC3 cells were seeded at a density of 5 × 10^6 cells/flask in two 75 cm^2 flasks. Treatment with drugs for 48 h was performed in one flask, whereas the other was used as a control. Total RNA was isolated using TRIZOL, and the total RNA was extracted from the sample with RNA extraction kit (Accurate Biotechnology (Hunan) Co., Ltd. ChangSha, China). DNA was digested with DNase (GenScript, E00053). Magnetic beads with Oligo (dT) were used to enrich eukaryotic mRNA, and cDNA library construction and sequencing were performed on the Illumina HiSeq Xten platform. After quality inspection, raw data (raw reads) were processed using Trimmomatic. Reads containing ploy-N and low-quality reads were removed to obtain clean reads. The clean reads were then mapped to the reference genome using HISAT2. The FPKM value of each gene was calculated using cufflinks, and the read counts of each gene were obtained by htseq-count. DEGs were identified using DESeq. […] Hierarchical cluster analysis of DEGs was performed to explore the gene expression patterns. KEGG pathway enrichment analysis and PPI and IPA analyses of the DEGs were performed.
GSEA was conducted using GSEA software.

In another series the test system is HDAC. Briefly: Inhibitory activity of SeSAHA compared with SAHA (data not shown). Conditions: preliminary results.
Where [4] appears, read: versus DMSO, adjusted p-value < 0.05, |log2foldchange| > 1.

Compound `O=C(CCCCCC[Se][Se]CCCCCCC(=O)Nc1cccc(COC(=O)C(Cl)Cl)c1)Nc1cccc(COC(=O)C(Cl)Cl)c1` came in with an IC50 in the series with HT-29 of 8.71 µM.

`O=C(O)C(Cl)Cl` [DCA, Dichloroacetate]: in the series with PC3 cells [1], the IC50 was above 18000 µM. In series [2], this compound had an A/G of 0.36 ± 0.02, a BUN of 10.5 ± 0.88, a TBIL of 0.49 ± 0.06 and an ALT of 37.5 ± 4.5. Also, in series [2], the ALP is 36.2 ± 3.6, the AST stood at 223.4 ± 35, the ALB worked out at 13.45 ± 0.18 and the GLOB was determined as 37.1 ± 0.22. The same compound gave a TP in series [2] of 51.5 ± 0.45. Also, the “changes in gene expression compared with DMSO” value in the series on PC3 cells [3] is recorded as “minimal changes”.

As for `CC(=O)O[C@@]12CO[C@@H]1C[C@H](O)[C@@]1(C)C(=O)[C@H](O)C3=C(C)[C@@H](OC(=O)[C@H](O)[C@@H](NC(=O)OC(C)(C)C)c4ccccc4)C[C@@](O)([C@@H](OC(=O)c4ccccc4)[C@H]21)C3(C)C` [Docetaxel, docetaxel], in series [2], the A/G was found to be 0.38 ± 0.04, the BUN is on record as 9.8 ± 0.8, the TBIL was 0.7 ± 0.07 and the ALT was 46.4 ± 5.7. In series [2], this compound had an ALP of 34.2 ± 8.2, an AST of 251.8 ± 48.3, an ALB of 14.6 ± 0.6 and a GLOB of 38.3 ± 3.1. The compound further yielded a TP in series [2] of 52.8 ± 4.1.

On to `O=C(CCCCCCC(=O)Nc1ccccc1)NO` [SAHA, suberoylanilide hydroxamic acid], for which, in series [2], the BUN came to 7.9 ± 1.5, the TBIL worked out at 0.8 ± 0.17, the ALT was determined as 53.5 ± 5.5 and the ALP was 34.3 ± 3.3. Further, in series [2], the AST is 285.3 ± 40.6, the ALB amounted to 15.8 ± 0.6, the GLOB is 35.9 ± 3.6 and the TP is on record as 51.7 ± 2.5. In addition, in the series with PC3 cells [3] (setting [4]), the downregulated transcripts/genes came out at 1573 and the upregulated transcripts/genes is recorded as 2,024.

`O=C(CCCCCC[Se][Se]CCCCCCC(=O)Nc1cccc(CO)c1)Nc1cccc(CO)c1` [SeSAHA] came in with an IC50 with PC3 cells [1] above 1.8 µM. In series [2], this compound yielded an A/G of 0.4 ± 0.07, a BUN of 6.7 ± 0.7, a TBIL of 0.6 ± 0.07 and an ALT of 49.3 ± 6.7. In series [2], this compound displayed an ALP of 36.5 ± 4.3, an AST of 235.5 ± 40.3, an ALB of 15.4 ± 2.1 and a GLOB of 38.4 ± 1.1. In series [2], this compound came in with a TP of 53.7 ± 0.3. Besides, in the series on HDAC, the “inhibitory effect relative to SAHA” value is “more than 10 fold”.

For orientation: IC50 means the concentration at which inhibition is half-maximal.
